Assay results: PubChem BioAssay AID1996
≈ marks a conversion by molar mass, not a printed value.

settings: buffer; pH 7.4; 200.0 µM

| Structure (SMILES) | solubility kinetic [µg/mL] |
| --- | --- |
| Cc1ccc(NC(=O)c2cccc3ccccc23)cc1 | < 0.6 |
| O=C(COc1cc(Cl)ccc1Cl)N1CCNC1=O | > 43.4 |
| CC(=O)c1ccc(NC(=O)CN2C(=O)NC3(CCc4ccccc43)C2=O)cc1 (stereo not drawn) | > 56.6 |
| Cc1cc(C)cc(NC(=O)CN2CCN(C(=O)c3cccs3)CC2)c1 | > 53.6 |
| Cc1cccc(C(=O)OCC(=O)N2CCCC2=O)c1[N+](=O)[O-] | > 45.9 |
| CC(O)CNCCOc1cccc(Oc2ccccc2)c1.O=C(O)C(=O)O (stereo not drawn) | 45.6 |
| CC(C)(C)OC(=O)NCCC(=O)N/N=C/c1ccc2ncccc2c1 | > 51.4 |
| O=C(O)c1ccc(N2C(=O)CSC2=S)cc1 | > 38 |
| CC1(C)C(=O)Nc2ccccc2N1C(=O)COc1ccc(C#N)cc1 | 38.1 (≈ 114 µM) |
| CCOC(=O)N1CCN=C1SCc1ccc(C(F)(F)F)cc1 | 13.6 (≈ 40.9 µM) |
| Cc1ccc(C2=NOC3(CC(=O)N(c4ccccc4)C3=O)C2)cc1 (stereo not drawn) | 45.2 (≈ 141 µM) |
| CCC(C)Oc1ccc(C(=O)Nc2ccc(CN3CCOCC3)cc2)cc1 (stereo not drawn) | 54.1 (≈ 147 µM) |
| CCOc1ccc(Nc2nc(NCC(=O)O)nc(N)c2[N+](=O)[O-])cc1 | > 52.2 |
| CCc1ccc(N2CC(C(=O)OCC(=O)NC3CC3)CC2=O)cc1 (stereo not drawn) | > 49.6 |
| O=C(CCCOc1ccc(Cl)cc1Cl)Nc1ccccn1 | 0.6 (≈ 1.85 µM) |
| CC1CCC2(CC1)NC(=O)N(CC(=O)Nc1cccc(S(=O)(=O)N3CCCCC3)c1)C2=O (stereo not drawn) | 2.2 (≈ 4.76 µM) |
| CCNCC(O)c1cccc(O)c1 (stereo not drawn) | 18.9 (≈ 104 µM) |
| O=C(/C=C/c1c(F)cccc1Cl)N1CCc2ccccc2C1 | 5.9 (≈ 18.7 µM) |
| NC(=O)C1CCCCc2c1[nH]c1ccc(Cl)cc21 (stereo not drawn) | > 39.4 |
| O=C(NC1CC1)C1CC(=O)N(c2cccc(Cl)c2)C1 (stereo not drawn) | > 41.8 |
| CC(C)CC(=O)Nc1ccc(-c2cn3cccnc3n2)cc1 | > 44.2 |
| CC(=O)Nc1ccc(NC(=O)C(C)OC(=O)c2ccc(S(=O)(=O)N3CCCCCC3)cc2)cc1 (stereo not drawn) | 9.6 (≈ 19.7 µM) |
| COc1ccc(C(=O)Nc2ccc(NC(=O)C(C)C)nc2)cc1 | 3.1 (≈ 9.89 µM) |
| Cc1ccc(/C([O-])=C(/C(=S)NCc2ccccc2)[n+]2ccccc2)cc1[N+](=O)[O-] | 12 (≈ 29.6 µM) |

| Structure (SMILES) | solubility kinetic [µg/mL] |
| --- | --- |
| O=C1NC(=S)NC(=O)C1=Cc1ccc(Br)s1 | 44.3 (≈ 140 µM) |
| Cc1ccc(SC(C)C(=O)O/N=C(\N)c2ccncc2)cc1 (stereo not drawn) | > 47.3 |
| CCC(Oc1ccccc1OC)C(=O)N1CC(=O)Nc2ccccc21 (stereo not drawn) | 43 (≈ 126 µM) |
| Br.Cn1ccnc1SCC(=O)c1ccc(O)cc1 | > 49.4 |
| CC1CCCC(NC(=O)COC(=O)COc2cccc(F)c2)C1C (stereo not drawn) | 20.2 (≈ 59.9 µM) |
| COc1ccc(NC(=O)C2=NN(C3CCS(=O)(=O)C3)C(=O)CC2)cc1S(N)(=O)=O (stereo not drawn) | > 66.7 |
| CC(Sc1ccccc1F)C(=O)Nc1ccc2c(c1)OCCO2 (stereo not drawn) | > 50 |
| COc1ccc(NC(=O)CCSc2nc(C)cs2)cc1 | > 46.3 |
| Cc1cccc(NS(=O)(=O)c2csc(C(N)=O)c2)c1 | > 44.5 |
| Fc1ccc(COc2ccc(C(=S)N3CCCC3)cc2)cc1 | < 0.7 |
| CN(Cc1cnccn1)Cc1nc(Cc2ccccc2F)no1 | > 47 |
| O=C1CC2(CCCC2)C(=O)N1CN1CCN(S(=O)(=O)c2ccc(F)cc2F)CC1 | > 64.1 |
| O=C(COC(=O)c1cccs1)Nc1ccccc1Cl | 2.3 (≈ 7.78 µM) |
| Cc1ccc(NC(=O)CN2CCc3ccccc3C2)cc1F | 23.1 (≈ 77.4 µM) |
| CN(C)c1ccc(-n2cccc2)cc1 | 1.1 (≈ 5.91 µM) |
| COc1ccc(/C=C2\CCc3ccccc3C2=O)cc1CN1CCOCC1 | 23.9 (≈ 65.8 µM) |
| Nc1nc(NC2CCCCC2)nc(NCCO)c1[N+](=O)[O-] | 38.1 (≈ 129 µM) |
| Cc1ccc2oc(C(=O)NC3CCS(=O)(=O)C3)c(C)c2c1 (stereo not drawn) | 27.5 (≈ 89.5 µM) |
| CSc1ncccc1C(=O)OCCCC(=O)c1ccc(F)cc1 | 3.8 (≈ 11.4 µM) |
| Cc1ccccc1CC1CCN(CCCNC(=O)Nc2ccccc2)CC1 | 39.9 (≈ 109 µM) |
| Cc1ccc(NC(=O)CN2C(=O)c3ccccc3C2=O)cc1 | 2 (≈ 6.8 µM) |
| CC(C(=O)Nc1ccc(OCc2ccccc2)cc1)N1CCCC1 (stereo not drawn) | > 48.7 |
| Cc1cccc(Nc2nc(-c3sc(C)nc3C)cs2)c1 | 0.2 (≈ 0.663 µM) |
| Cc1cc(F)ccc1NC(=O)Nc1ccc2c(c1)OCO2 | < 0.3 |

| Structure (SMILES) | solubility kinetic [µg/mL] |
| --- | --- |
| CCC(Oc1ccccc1)C(=O)NCCCN1CCOCC1 (stereo not drawn) | > 46 |
| CCc1noc(C)c1C(=O)OCC(=O)c1ccc(NC(C)=O)cc1F | 9.1 (≈ 26.1 µM) |
| CC(NC(=O)COC(=O)c1ccc([N+](=O)[O-])o1)c1ccccc1 (stereo not drawn) | > 47.7 |
| Cc1cccc(N2CCN(Cc3nc(CC4CC4)no3)CC2)n1 | 41.1 (≈ 131 µM) |
| CCN(CC)c1nc(N2CCOCC2)nc2ccccc12.Cl | 42.8 |
| COc1ccccc1CNC(=O)CC1Sc2ccccc2NC1=O (stereo not drawn) | 1.7 (≈ 4.96 µM) |
| Nc1cc(=O)n(Cc2ccccc2)c(=O)n1-c1ccc(F)cc1 | > 46.7 |
| CCOc1ccc(NC(=O)COC(=O)Cc2ccsc2)cc1 | 25.1 (≈ 78.6 µM) |
| CCOc1ccc(C(=O)N2CCc3ccccc32)cc1OCC | 40.5 (≈ 130 µM) |
| Cc1cc2c(=O)oc(-c3ccc(Br)cc3)nc2s1 | < 0.7 |
| O=C(CNC(=O)[C@@H]1Cc2ccccc2CN1)NC1CCCCC1 | > 47.3 |
| O=C(N/C(=C\c1ccco1)C(=O)N1CCCC1CO)c1ccccc1 (stereo not drawn) | > 51.1 |
| CC1CC(C)CN(CC(O)COCc2ccccc2F)C1.Cl (stereo not drawn) | > 49.8 |
| O=C1CSC(c2ccccc2[N+](=O)[O-])N1c1ccc(O)cc1 (stereo not drawn) | > 47.4 |
| Cc1ccc(-c2csc3nc[nH]c(=O)c23)c(C)c1 | 2.4 (≈ 9.36 µM) |
| COc1ccccc1N1CCN(C(=O)c2cccs2)CC1 | > 45.4 |
| CC(=O)c1ccc(NC(=O)C(C)Sc2nnc(-c3ccncc3)n2C2CC2)cc1 (stereo not drawn) | > 61.1 |
| COc1cccc(NC(=O)COc2ccccc2)c1 | > 38.6 |
| Cc1c(Cl)cccc1NC(=O)c1cccnc1 | > 37 |
| COc1ccccc1NC(=O)C(C)N(C)CCOc1ccccc1 (stereo not drawn) | 23.1 (≈ 70.3 µM) |
| CC1CCN(C(=O)COc2cccc3c2CCN(Cc2ccccc2)C3=O)CC1 | 55.9 (≈ 142 µM) |
| CSc1nccc(NC(=O)c2cccc(Br)c2)n1 | 2.5 (≈ 7.71 µM) |
| COc1ccc(N=Cc2c(O)n(C)c(=O)n(C)c2=O)cc1 | 11.1 (≈ 38.4 µM) |
| Cc1cc(C(=O)O)ccc1-n1c(C)cc(/C=C2\SC(=O)NC2=O)c1C | > 53.5 |

| Structure (SMILES) | solubility kinetic [µg/mL] |
| --- | --- |
| CCCCCOc1ccc(C(=O)CCC(=O)NC(C)c2ccc(S(N)(=O)=O)cc2)cc1 (stereo not drawn) | 10.9 (≈ 24.4 µM) |
| COC(=O)C(c1ccccc1)C1(O)CC(C)N(C)CC1C (stereo not drawn) | > 43.7 |
| CN1CCN(CC(=O)NC(=O)NC2CCCCC2)CC1 | > 42.4 |
| COc1ccc(/C=N/NC(=O)c2ccc[nH]2)cc1 | > 36.5 |
| Cc1ccc(C23CC4CC(CC(C(=O)NCC(=O)O)(C4)C2)C3)cc1 | > 49.1 |
| CC(=O)N1CCN(c2ccc(NC(=O)c3ccc(Cl)cc3)cc2)CC1 | 1 (≈ 2.79 µM) |
| O=C1c2ccccc2NC(c2ccc(Br)s2)N1O (stereo not drawn) | 37.5 (≈ 115 µM) |
| Fc1cc(Br)cc(F)c1NC(=S)N1CCOCC1 | 33.8 (≈ 100 µM) |
| CC(C)(C)c1ccc(C(=O)N2CCN(c3ncccn3)CC2)cc1 | 9.6 (≈ 29.6 µM) |
| CCOc1ncccc1C(=O)Nc1ccc(S(=O)(=O)N2CC(C)CC(C)C2)cc1 (stereo not drawn) | 0.9 (≈ 2.16 µM) |
| CS(=O)(=O)c1ccc(Cl)c(NC(=O)COC(=O)c2ccc(S(=O)(=O)N3CCCC3)cc2)c1 | 10.5 (≈ 21 µM) |
| Cc1ccccc1CC(=O)N1CC(C)OC(C)C1 (stereo not drawn) | > 37.1 |
| Cc1cc(C)cc(OCC(=O)Nc2nc(-c3ccccn3)cs2)c1 | 1.2 (≈ 3.54 µM) |
| C#CCN1C(=O)C2(OCCO2)c2ccccc21 | > 34.4 |
| Cc1cc(C(=O)Nc2ccc3ccccc3c2)oc1C | 3.8 (≈ 14.3 µM) |
| O=C(COC(=O)Cc1ccc(Cl)cc1)NC1CCCC1 | > 44.4 |
| CCc1nc(NC(=O)Cc2csc(C)n2)sc1C(=O)OC | > 48.8 |
| COc1ccccc1CNC(=S)NC1CCCCC1 | > 41.8 |
| O=C(NCc1cccnc1)Nc1ccccc1C(F)(F)F | > 44.3 |
| O=C(NN1CCOCC1)c1cc(Cl)ccc1Cl | > 41.3 |
| CC1=C/C(=C/N(C)C)C(=O)O1 | 15.7 (≈ 102 µM) |
| Clc1ccccc1CN1CCSCC1 | 1.6 (≈ 7.02 µM) |
| Cc1ccc2[nH]c(CNC(=O)c3ccccc3F)cc2c1 | 5.4 (≈ 19.1 µM) |
| CC(C)(C)C(=O)O/N=C1\CCS(=O)(=O)c2sccc21 | 36.5 (≈ 121 µM) |

| Structure (SMILES) | solubility kinetic [µg/mL] |
| --- | --- |
| CC1CCC2(CC1)NC(=O)N(CC(=O)NCc1ccc(Cl)cc1)C2=O (stereo not drawn) | 6.3 (≈ 17.3 µM) |
| CCNc1nc(-c2ccc(OC(F)F)cc2)c(C)s1 | 20.9 (≈ 73.5 µM) |
| N#CC(=NCc1cccnc1)C1=C(O)c2ccccc2C1=O | 6.4 (≈ 22.1 µM) |
| CCOC(=O)N1CCC(NS(=O)(=O)c2ccc(C#N)cc2)CC1 | > 50.6 |
| Cc1ccccc1CSCC(=O)Nc1ccccc1Br | 4.5 (≈ 12.8 µM) |
| CN(C)S(=O)(=O)c1ccc(C(=O)/C=C/c2cccnc2)cc1 | 3.3 (≈ 10.4 µM) |
| Cc1ccc(C(=O)NCC(C)NC(=O)c2ccc(C)c([N+](=O)[O-])c2)cc1[N+](=O)[O-] (stereo not drawn) | 1.8 (≈ 4.5 µM) |
| O=C(Cc1ccccc1)NCC(=O)N1CCC1 | > 34.8 |
| CC1CCCCN1C(=O)c1cc(S(=O)(=O)N2CCOCC2)ccc1Cl (stereo not drawn) | > 58 |
| CCN(CC)CCNC(=O)c1ccc(-n2c(C)cc3c2CCCC3=O)cc1 | 33.7 (≈ 91.7 µM) |
| O=C(O)c1csc(-c2ccc(Cl)cc2)n1 | > 36 |
| CSc1ncccc1C(=O)Nc1nccs1 | > 37.7 |
| CC(=O)Nc1ccc(Sc2ccccc2C(=O)O)cn1 | > 43.2 |
| N/C(=N\OC(=O)CC1CCCCC1)c1ccc(Cl)cc1 | 0.9 (≈ 3.05 µM) |
| CC1CCCCN1C(=O)Cn1cnc2cc([N+](=O)[O-])ccc2c1=O (stereo not drawn) | > 49.6 |
| Nn1c(SCC(=O)NCCc2ccc(S(N)(=O)=O)cc2)nnc1C1CCCCC1 | > 65.8 |
| Cc1nc2ccc(OC(=O)c3ccccc3)cc2s1 | 2.9 (≈ 10.8 µM) |
| COc1cc(NC(N)=S)c(OC)cc1Cl | > 37 |
| COc1ccc(CC(=O)Nc2cc(S(=O)(=O)N3CCOCC3)ccc2N2CCCC2)cc1OC | > 73.4 |
| COc1ccc(C(=O)Nc2cc([N+](=O)[O-])ccc2N2CCCC2)cc1 | 2.6 (≈ 7.62 µM) |
| CS(=O)(=O)N1CCC(CO)(Cc2ccccc2C(F)(F)F)CC1 | 48.7 (≈ 139 µM) |
| Cc1ccc2c(c1)C1C3CCC(C3)C1S(=O)N2 (stereo not drawn) | > 37.1 |
